According to ChEMBL document CHEMBL5346948, “Expanding Chemical Probe Space: Quality Criteria for Covalent and Degrader Probes” (J Med Chem, 2023):

How the values were obtained:
[1] = test system: GTPase KRas (Homo sapiens), P01116 [G12C]; experiment: Binding affinity to Hexahistidine-tagged recombinant human KRAS G12C mutant (1 to 169 residues) expressed in Escherichia coli assessed as kinact/Ki ratio
[2] = test system: Cereblon/Bromodomain-containing protein 9 (Homo sapiens); experiment: PROTAC activity at CRBN/BRD9 in human HeLa cells assessed as induction of protein degradation by measuring maximal degradation relative to control
[3] = biological target: Cereblon/Bromodomain-containing protein 9 (Homo sapiens); experiment: PROTAC activity at CRBN/BRD9 in human HeLa cells assessed as protein degradation by Western blot analysis
[4] = biological target: T1, Zinc finger protein Helios (Homo sapiens, UniProt Q9UKS7); experiment: Induction of IKZF2 degradation in human GripTite 293 MSR cells; format: cell-based
[5] = biological target: T1, Zinc finger protein Helios; experiment: Induction of IKZF2 degradation in human GripTite 293 MSR cells assessed as maximal degradation relative to control; format: cell-based
[6] = biological target: T2, Estrogen receptor (Homo sapiens) (UniProt P03372); experiment: Induction of ERalpha degradation in human MCF7 cells assessed as maximal degradation relative to control; format: cell-based
T2 sequence (whole entry): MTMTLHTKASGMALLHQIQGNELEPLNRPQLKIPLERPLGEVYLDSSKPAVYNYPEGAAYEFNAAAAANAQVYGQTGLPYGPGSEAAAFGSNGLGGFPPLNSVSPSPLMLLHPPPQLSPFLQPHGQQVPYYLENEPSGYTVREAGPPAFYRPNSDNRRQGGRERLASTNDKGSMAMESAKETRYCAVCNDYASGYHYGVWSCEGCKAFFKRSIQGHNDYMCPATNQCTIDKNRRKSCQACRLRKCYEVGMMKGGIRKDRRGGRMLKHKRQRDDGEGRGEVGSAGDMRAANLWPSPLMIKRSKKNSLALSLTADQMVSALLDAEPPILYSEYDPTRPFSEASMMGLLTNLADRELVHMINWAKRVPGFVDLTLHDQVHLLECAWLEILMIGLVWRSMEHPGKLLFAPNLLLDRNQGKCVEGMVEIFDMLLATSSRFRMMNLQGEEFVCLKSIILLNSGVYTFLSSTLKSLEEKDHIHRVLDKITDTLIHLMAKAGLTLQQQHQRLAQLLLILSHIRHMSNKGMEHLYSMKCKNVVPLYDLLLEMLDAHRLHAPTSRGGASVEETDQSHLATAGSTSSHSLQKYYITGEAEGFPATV

[7] = test system: GTPase KRas (Homo sapiens), P01116 [G12C]; experiment: Binding affinity to KRAS G12 mutant (unknown origin) assessed as kinact/Ki ratio
[8] = biological target: T3, Protein cereblon/RAC-alpha serine/threonine-protein kinase (Homo sapiens, UniProt P31749+Q96SW2); experiment: Protac activity at CRBN/Akt1 in human JeKo-1 cells assessed as induction of Akt1 degradation by measuring maximal protein degradation relative to control; format: cell-based
[9] = biological target: T3, Protein cereblon/RAC-alpha serine/threonine-protein kinase; experiment: Protac activity at CRBN/Akt1 in human JeKo-1 cells assessed as Akt1 degradation by immunoblot analysis; format: cell-based
[10] = biological target: T4, von Hippel-Lindau disease tumor suppressor/Bcl-2-like protein 1 (Homo sapiens, UniProt Q07817+P40337); experiment: Protac activity at VHL/BCL-XL in human MOLT-4 cells assessed as induction of BCL-XL degradation incubated for 16 hrs by immunoblot analysis; format: cell-based
[11] = biological target: T4, von Hippel-Lindau disease tumor suppressor/Bcl-2-like protein 1; experiment: Protac activity at VHL/BCL-XL in human MOLT-4 cells assessed as induction of protein degradation by measuring maximal degradation relative to control; format: cell-based
[12] = biological target: T5, B-cell lymphoma 6 protein (Homo sapiens, UniProt P41182); experiment: Induction of BCL6 degradation in human SU-DHL-4 cells; format: cell-based
[13] = biological target: T5, B-cell lymphoma 6 protein; experiment: Induction of BCL6 degradation in human SU-DHL-4 cells assessed as maximal degradation relative to control; format: cell-based
[14] = biological target: Tyrosine-protein kinase JAK1 (Homo sapiens, UniProt P23458); experiment: Inhibition of JAK1 (unknown origin)
[15] = biological target: von Hippel-Lindau disease tumor suppressor/SWI/SNF-related matrix-associated actin-dependent regulator of chromatin subfamily A member 2 (Homo sapiens) (UniProt P51531+P40337); experiment: PROTAC activity at SMARCA2/VHL in human MV4-11 cells assessed as induction of protein degradation by measuring maximal protein degradation relative to control; format: cell-based

Q: With C=CS(=O)(=O)NC1CCN(C(=O)CNc2cc(I)c(Cl)cc2O)CC1 as the compound, how does the Ratio [1] read?
A: Its Ratio is 0.33 s⁻¹ M⁻¹.

Q: For C=CC(=O)N1CC(N2CCN(C(=O)CNc3cc(C4(C)CC4)c(Cl)cc3O)CC2)C1, which Ratio [1] is on record?
A: Its Ratio is 250 s⁻¹ M⁻¹.

Q: Which results are given for COc1cc(-c2cn(C)c(=O)c(C)c2C)cc(OC)c1CN1CC[C@H](N2CCN(c3ccc(N[C@H]4CCC(=O)NC4=O)cc3F)CC2)C(F)(F)C1 [SENDEGOBRESIB]?
A: Emax [2]: 96%; DC50 [3]: 3 nM

Q: O=C1CCC(N2Cc3cc(C4CCN(Cc5ccccc5)CC4)ccc3C2=O)C(=O)N1 (centres undefined) was tested. Which DC50 [4] did it give?
A: Its DC50 is 11 nM.

Q: And the Emax [5]?
A: Its Emax is 69%.

Q: How did the Emax [6] turn out when O=C1CC[C@H](N2Cc3cc(N4CCN(CC5CCN(c6ccc([C@@H]7c8ccc(O)cc8CC[C@@H]7c7ccccc7)cc6)CC5)CC4)ccc3C2=O)C(=O)N1 was run?
A: The Emax was 80%.

Q: Which Ratio [7] does the source give for C=CC(=O)N1CCN(c2nc(OC[C@@H]3CCCN3C)nc3c(F)c(-c4nc(N)cc(C)c4C(F)(F)F)c(Cl)cc23)[C@@H](C)C1 here?
A: The Ratio was 27000 s⁻¹ M⁻¹.

Q: Cc1ncsc1-c1ccc([C@H](C)NC(=O)[C@@H]2C[C@@H](O)CN2C(=O)[C@@H](NC(=O)CCCCCCCCCCNC(=O)CCc2cccc(-c3ccc4nc(-c5cccnc5N)n(-c5ccc(C6(N)CCC6)cc5)c4n3)c2)C(C)(C)C)cc1 was tested. Which Emax [8] did it give?
A: Its Emax is over 80%.

Q: What about the DC50 [9] of the same compound?
A: Its DC50 is 23 nM.

Q: For Cc1ncsc1-c1ccc([C@H](C)NC(=O)[C@@H]2C[C@@H](O)CN2C(=O)[C@@H](NC(=O)CCCCCC(=O)N2CCN(CC[C@H](CSc3ccccc3)Nc3ccc(S(=O)(=O)NC(=O)c4ccc(N5CCN(CC6=C(c7ccc(Cl)cc7)CCC(C)(C)C6)CC5)cc4)cc3S(=O)(=O)C(F)(F)F)CC2)C(C)(C)C)cc1 [DT-2216], which DC50 [10] is on record?
A: The DC50 was 63 nM.

Q: What about the Emax [11] of the same compound?
A: Its Emax is 91%.

Q: COc1cc(-c2cn(C)c(=O)c3cnc(N4CCC4)cc23)cc(OC)c1CN1CCC(CN2CCC3(CC2)CN(c2ccc4c(c2)C(=O)N([C@H]2CCC(=O)NC2=O)C4)C3)CC1 was tested. Which Emax [2] did it give?
A: Its Emax is 97%.

Q: And the DC50 [3]?
A: The DC50 was under 1 nM.

Q: Which results are given for CNC(=O)COc1cc2cc(Nc3nc(N4C[C@H](C)C[C@H](C)C4)ncc3Cl)ccc2n(C)c1=O?
A: DC50 [12]: 20 nM; Emax [13]: > 80%

Q: CS(=O)(=O)N1CC[C@H](C#CC(=O)N2CCC[C@@H](c3ccc(Cl)c(Cl)c3)C2)C1 was tested. Which IC50 [14] did it give?
A: Its IC50 is 32 nM.

Q: With C=CC(=O)N1CCN(c2ncnc3c(F)c(-c4c(O)cccc4F)c(Cl)cc23)CC1 as the compound, how does the Ratio [1] read?
A: The Ratio was 1100 s⁻¹ M⁻¹.

Q: How did the Emax [15] turn out when Cc1ncsc1-c1ccc([C@H](CC[C@H](C)CCN2CCC(c3ccc4c(c3)n(C3CCCC3)c3nc(=O)c5c(Br)cccc5n43)CC2)NC(=O)[C@@H]2C[C@@H](O)CN2C(=O)[C@@H](NC(=O)C2(F)CC2)C(C)(C)C)cc1 was run?
A: Its Emax is 81%.
